# Measurements from US20220096515A1, “Methods and Formulations for Preventing Neurological or Psychiatric Disorders” (Huntington Medical Research Institutes, priority 2020, published 2022).
# Assays:
# [1] = system: periventricular endothelial cells isolated from E15 wildtype (CD1) forebrain; experiment: Tube formation under normal culture conditions (no Matrigel); format: cell-based, mouse; conditions: absence of Matrigel
# Procedure: Primary culture of endothelial cells and endothelial cell staining: Embryonic brains were dissected under a stereo-microscope, after the NAD^+ treatment paradigm and the telencephalon was removed. Pial membranes were peeled off. Telencephalon without pial membranes from the periventricular region was pooled. Purity of endothelial cell cultures was established with endothelial cell markers and determined to be one hundred percent. Isolation and culture of endothelial cells were performed according to published methodology. Periventricular endothelial cells were prepared from CD1 (wild type), saline-treated Gabrb3^fl/fl, saline-treated Gabrb3^ECKO, and NAD^+-treated Gabrb3^ECKO embryos. Endothelial cells were labeled with anti-biotinylated isolectinB4 (1:100, Sigma), anti-GABA (1:400, Sigma), anti-DAXX (1:100, Santa Cruz Biotechnology) and anti-P2X4 (1:100, Abclonal) followed by secondary detection with AlexaFluor conjugates (Invitrogen). DAPI (Invitrogen) was used to label nuclei. Images were taken on an FSX100 microscope (Olympus). 1 million cells were examined for each immunohistochemistry condition.
# In one experiment, periventricular endothelial cells were isolated from E15 wildtype (CD1) forebrain and tested the effect of NAD^+ addition in vitro. […]
# [2] = system: cerebral cortex of Gabrb3^ECKO mice; experiment: In vivo multiphoton laser-scanning microscopy of cortical microvasculature; design: species or system mouse
# Procedure: In vivo imaging of brain microvasculature by multiphoton laser-scanning microscopy: In vivo imaging of the brain vasculature in cranial window bearing mice was performed as described previously. Briefly, a cranial window was implanted by removing circular area of skull and dura. Then, the window was sealed with a 7 mm cover glass glued to the bone. For the measurement of red blood cell (RBC) velocity and blood vessel diameter, we used multiphoton laser-scanning microscopy (MPLSM). To avoid potential tissue/vessel alteration caused by the window implantation procedure, we performed imaging at least 10 days after cranial window implantation. For imaging, mice were anesthetized with ketamine/xylazine, then tetramethylrhodamine (TAMRA)-dextran (MW 500,000) was administrated through retro-orbital injection. Using TAMRA-dextran contrast enhanced angiography, region of interest is first identified. Since the intravenously injected dye labels only the blood plasma, RBCs appear as dark patches moving within the vessel lumen. Centerline RBC velocity was measured by repetitively scanning a line along the central axis of a single blood vessel (x-t) and enabling the tracking of the motion of these dark patches. The space-time image produced by the line-scan contained diagonal dark streaks formed by moving RBCs, with a slope that was inversely proportional to the centerline RBC velocity. This space-time image was then computationally processed using Matlab and Python to extract the gradient of each streak, corresponding to the RBC velocity. Briefly, diagonal filters of varying gradients were tested for each streak until the gradient that fit best was found. […] The blood flow rate was determined through the following formula: […]
# Therefore, vessel diameters, red blood cell (RBC) velocity, and blood flow were evaluated in the cerebral cortex of saline-treated Gabrb3^fl/fl mice, saline-treated Gabrb3^ECKO mice, and NAD^+-treated Gabrb3^ECKO mice (FIGS. 14A-14F) using multiphoton laser-scanning microscopy (MPLSM) and a sophisticated cranial window model. […]
# [3] = system: Gabrb3^ECKO mice; experiment: Light-dark transition test; format: in vivo, mouse; conditions: after prenatal treatment
# Procedure: (§1) Behavioral Experiments: Mice were housed in our animal facility with a 12-hour light cycle with ad libitum access to food and water. Offspring stayed with their mothers until weaning at PND 21 after which males and females were separated. Before all behavioral testing, mice were acclimated to the testing room for 1 hour. Behavioral assays were performed according to established protocols referenced here: self-grooming, light-dark box, tail suspension test, Y-maze, open field locomotion activity, three chamber social interaction test and nest building with nestlets and with shredded paper. Both males and females were used for all behavioral assays. Experimenters scoring behaviors were blinded to the genotypes and treatment. Sample sizes for each assay are noted in figure legends.
# Anxiety was next assessed with the classic light-dark transition test which triggers a struggle between the desires to explore a novel environment versus natural aversion of a brightly illuminated open space. […] The Y maze spontaneous alternation test was used to evaluate for spatial learning and memory in the three groups of mice. After introduction to the center of the maze, the mice were given free access to all three arms. […] The total number of arm entries and the sequence of entries are recorded in order to calculate the percentage of alternation. […]
# [4] = system: Gabrb3^ECKO mice; experiment: Three-chamber social communication test; format: in vivo, mouse
# Procedure: as §1
# This is indicative of rescue of social motivation, memory and novelty exploration in NAD^+-treated Gabrb3^ECKO mice (FIG. 14L).
# [5] = Litter size and pup growth after prenatal treatment; format: in vivo, mouse; conditions: prenatal NAD^+ treatment
# [6] = system: Gabrb3^fl/fl mice; experiment: Nesting and grooming behavior of NAD+ treated Gabrb3^fl/fl mice; format: in vivo, mouse; conditions: NAD+ vs saline treated Gabrb3^fl/fl mice
# Procedure: Certain embodiments treat an individual at a dosage of approximately 10 mg/kg—for example, for a 60-70 kg human, a dosage would be approximately 600-700 mg. Some embodiments treat at a dosage higher than 10 mg/kg, such as up to 40 mg/kg. In many embodiments excess NAD+ may be removed from the body without deleterious effects. FIGS. 1D-1F illustrate exemplary data showing no deleterious effects from treating wildtype mice with NAD+. […] As excess NAD+ may be removed without significant effect to a treated individual, some embodiments treat a person prophylactically.
# as §1
# [7] = adult, after prenatal treatment
compound,measurement,setting,value
NC(=O)c1ccc[n+]([C@@H]2O[C@H](COP(=O)([O-])OP(=O)(O)OC[C@H]3O[C@@H](n4cnc5c(N)ncnc54)[C@H](O)[C@@H]3O)[C@@H](O)[C@H]2O)c1 [NAD^+],tube formation,[1],started showing tube formation properties under normal culture conditions
same,RBC velocity in capillaries,[2]; [7],reversed
same,diameter of capillaries and collecting venules,[2]; [7],morphological alteration was rescued
same,blood flow in capillaries and collecting venules,[2]; vs saline-treated Gabrb3^ECKO mice,significantly reduced
same,time in light vs dark sides,[3],spent equivalent times between the light and dark sides of the open field
same,sociability: stranger mouse vs inanimate object,[4]; sociability phase,interacted with the stranger mouse for a significantly longer duration than with the inanimate object
same,social novelty: stranger 2 vs familiar stranger 1,[4]; social novelty phase,marked preference for stranger 2
same,growth of pups,[5],grew normally to adulthood
same,litter size,[5],did not have any effect on litter size
same,grooming behavior,[6],no significant change in grooming behavior
same,nesting behavior,[6]; untorn nestlet and shredded paper,no significant difference in nesting behavior
